In patent EP2311482A1, “Osteogenic synthetic BMP-7 peptides, pharmaceutical compositions cell culture medium containing same” (Industry Foundation Of Chonnam National University, priority 2009, dated 2011) one finds cytotoxicity data, which are given here for two sequences.

The subject of the data set is cells. Briefly: MTT assay for cytotoxicity. It is filed as cell-based. The conditions noted are these: within a range of used concentrations; FIGS. 3a and 3b.

No end group written: not given here.

On to “GQGFSYPYKAVFSTQ [BFP 1, Gly-Gln-Gly-Phe-Ser-Tyr-Pro-Tyr-Lys-Ala-Val-Phe-Ser-Thr-Gln]”, for which the cytotoxicity result is listed as “neither BFP 1 nor BFP 2 are toxic to cells”.

With “VEHDKEFFHPRYHHR [BFP 2, Val-Glu-His-Asp-Lys-Glu-Phe-Phe-His-Pro-Arg-Tyr-His-His-Arg]”, the cytotoxicity result is listed as “neither BFP 1 nor BFP 2 are toxic to cells”.
